Results taken from patent US20200172974A1, “BIOMARKER FOR ANTI-TNF THERAPY IN RETINAL DISEASES” (HADASIT MEDICAL RESEARCH SERVICES & DEVELOPMENT LTD., priority 2017, published 2020).

What was measured:
[1] = test system: choroidal sprouting (choroid-sclera complex with RPE in Matrigel); assay: Choroid-sprouting assay (CSA), ex-vivo angiogenesis assay; format: cell-based, C57/BL6J mice; settings: fixed after 8 days
Experimental: Cytokines were added to the media based on the maximal level of each cytokine via ELISA of M(IFNγ and LPS)-derived media. Five (5) cytokines were tested (n=8; replicates for each cytokine): 0.25 ng/μl VEGF, 0.5 ng/μl IL-8, 2.5 ng/μl IL-6, 0.05 ng/μl IL-1β, and 0.8 5 ng/μl TNFα (PeproTech, Rocky Hill, N.J., USA). Anti-TNF (infliximab, 100 μg/μl Remsima, Celltrion Inc., South Korea) and anti-VEGF (Aflibercept, 40 μg/μl, Bayer Pharma AG, Berlin, Germany), with or without iMfs' supernatant were also studied in the CSA. Compounds' concentrations were based on previous studies (Grattendick et al., (2008)). Controls included medium-treated CSA and iMfs' supernatant treated CSA.
C57/BL6J 4-6 weeks old mice, treated in accordance with the guidelines of the Association for Research in Vision and Ophthalmology (ARVO), were utilized to generate the CSA. Experiments were conducted with the approval of the institutional animal care ethics committee. Five (5) minutes after injecting with ketamine, animals were evaluated for responses and euthanized by cervical dislocation. Eyes were immediately enucleated and kept in ice-cold ECGS medium containing 100 units/ml penicillin-streptomycin and 1% glutamine before dissection. A choroid-sclera complex from the mice was gently dissected along with retinal pigment epithelium (RPE). The complex was cut into 5-6 1 mm long pieces. Fragments were embedded in 30 μl of growth factor-reduced-Matrigel™ (BD Biosciences, Cat. 354230) in 24-well plates. The thickness of the Matrigel™ was approximately 0.4 mm. Plates were then incubated for 10 minutes in 37° C., in a 5% CO2 cell culture incubator without medium to solidify the Matrigel™. Five hundred (500) μl of medium containing ECGM (C-22010, Promocell, Germany) 2.5% supplement mix (C-9215, Promocell, Germany), 5% FCS, 100 units/ml penicillin-streptomycin, and 1% glutamine, was added to each well. For the experimental groups containing the iMfs' supernatant, the medium was replaced with 250 μl of iMfs' supernatant. Medium for each well was changed every 3 days, and the cultures were fixed with 4% PFA after 8 days. Cultures were viewed with an inverted phase-contrast CKX41 Olympus microscope, and images were photographed with an Olympus DP70 digital camera (Olympus, Tokyo, Japan).
ImageJ software was used for sprouting area quantification. Sprouting area was selected by the software and measured after excluding the choroid tissue. Background (control well, for each plate, supplemented with medium only) was subtracted and analysis was performed for each sample. Ratios of each well of experimental group and its relative control from the same eye were calculated and averaged with its replicates.

[2] = test system: choroidal neovascularization (CNV); assay: Laser-induced model of CNV (LI-CNV); format: in vivo, Long-Evans rats; settings: flat mounts 10 days after laser injury
Experimental: Long-Evans rats (8-12 weeks old) were used to generate LI-CNV. Animals were treated in accordance to the guidelines of ARVO. Experiments were conducted with the approval of the institutional animal care ethics committee. Before each procedure, rats were anesthetized by intraperitoneal injections of a mixture of 85% ketamine (Bedford Laboratories, Bedford, Ohio) and 15% xylazine (VMD, Arendonk, Belgium). Topical anesthesia (Oxybuprocaine HCL 0.4%; Fisher Pharmaceuticals, Tel-Aviv, Israel) was applied to each eye 10 minutes before intravitreal injections or laser photocoagulation.
Laser burns (5-7 burns per eye) were generated. Intravitreal injections of all compounds were performed using a PLI-100 Pico-Injector (Medical System Corp., Greenvale, N.Y.) two days following the laser to allow for CNV development, and every 2 days thereafter for a total of 10 days. iMfs were injected only once, two days after laser injury was performed.
Experimental groups included: 4 μl of PBS, 1 μl of 100 μg/μl infliximab, 1 μl of 100 μg/μl aflibercept, 1 μl of 100 μg/μl infliximab with 1×10^5 M(IFNγ and LPS) suspended in 4 μl of PBS; 1 μl of 100 μg/μl aflibercept with 1×10^5 M(IFNγ and LPS) suspended in 4 μl of PBS; and 1×10^5 M(IFNγ and LPS) suspended in 4 μl of PBS, for a total of 5 experimental groups and 1 control group. Each experimental group included 8 injected eyes of 4 rats. The compound dosage was previously described (Xu et al., (2008)). Antibiotic ointment (5% Chloramphenicol) was applied after every injection. Choroid-RPE and retinal flat mounts were prepared 10 days following the laser injury.
RPE-choroidal flat-mounts were fixated for one hour in 4% PFA and suspended overnight in isolectin solution (GS-Ib4 Alexa 594 staining solution, Molecular Probes, Eugene, Oreg.) containing 200 mM NaN3 and 1 mM CaCl2). Flat mounts were then washed 6 times for 20 minutes in PBS and embedded on a slide with a mounting medium. The CNV area around each laser injury was measured using the ImageJ software.

[3] = substance added alone to CSA medium, cytokines at maximal level found in M(IFNγ and LPS) media, infliximab 100 μg/μl
[4] = intravitreal injection together with 1×10^5 M(IFNγ and LPS) iMfs
[5] = intravitreal injection, substance alone, compared to PBS

Substance	Mean of relative ratio between treated and untreated wells±SEM (sprouting area) [1, 3]	Mean of CNV size±SEM [2, 4]	Mean of CNV size±SEM [2, 5]	Mean of relative ratio between treated and untreated wells±SEM (sprouting area) ([1]; with M(IFNγ and LPS)s' supernatant)
IL-8: recombinant cytokine (PeproTech), 0.5 ng/μl	0.47±0.14	–	–	–
TNFα	> 1.6±0.2	–	–	–
IL-6: recombinant cytokine (PeproTech), 2.5 ng/μl	0.64±0.1	–	–	–
IL-1β: recombinant cytokine (PeproTech), 0.05 ng/μl	0.8±0.2	–	–	–
VEGF	0.86±0.08	–	–	–
Aflibercept [anti-VEGF]	–	0.02±0.001	0.024±0.002	–
infliximab [anti-TNF]	1.14±0.06	> 0.036±0.004	0.045±0.005	> 1.06±0.04
